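Five concentrations, 48 hours, 96-well plates. GI50 marks 50% less growth. TGI: total growth inhibition.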
Legend:
Assay in all cases: inhibition of tumour cell growth, NCI panel, 48 h
[1] = tested on: HL-60(TB) leukemia
[2] = tested on: NCI/ADR-RES ovarian
[3] = tested on: OVCAR-4 ovarian
[4] = tested on: OVCAR-5 ovarian
[5] = tested on: SNB-19 CNS
[6] = tested on: PC-3 prostate
[7] = tested on: LOX IMVI melanoma
[8] = tested on: HCT-116 colon
[9] = tested on: SF-268 CNS
[10] = tested on: RPMI-8226 leukemia

| SMILES | GI50 [1] [µM] | TGI [1] [µM] | GI50 [2] [µM] | TGI [2] [µM] | GI50 [3] [µM] | TGI [3] [µM] | GI50 [4] [µM] | TGI [4] [µM] | GI50 [5] [µM] | TGI [5] [µM] | GI50 [6] [µM] | TGI [6] [µM] | GI50 [7] [µM] | TGI [7] [µM] | GI50 [8] [µM] | TGI [8] [µM] | GI50 [9] [µM] | TGI [9] [µM] | GI50 [10] [µM] | TGI [10] [µM] |
| --- | --- | --- | --- | --- | --- | --- | --- | --- | --- | --- | --- | --- | --- | --- | --- | --- | --- | --- | --- | --- |
| C(=N\Nc1ccc2ccccc2n1)/c1ccccn1 | 0.279 | 2.3 | 0.345 | 10.6 | 0.363 | > 100 | 0.596 | > 100 | 0.921 | > 100 | 0.825 | 73 | 0.422 | 13.8 | 0.368 | 13.9 | 0.41 | > 33.5 | 0.513 | 15.7 |
| CC/C=C\C[C@H]1C/C=C2/C(=O)C(Cl)=C[C@@H]2C/C=C\CCCC(=O)O1 | 0.527 | 2.7 | 0.423 | 2.37 | 0.952 | 4.9 | 0.592 | 1.84 | 0.665 | 3.54 | 0.346 | 0.986 | 0.159 | 0.52 | 0.205 | 0.859 | 0.496 | 2.39 | 0.0819 | 0.492 |
| COc1ccc(-c2[nH]ncc2Nc2cc(OC)c(OC)c(OC)c2)cc1 | 0.304 | 1.57 | 1.86 | 25 | 5.01 | > 100 | 5.26 | > 100 | 4.86 | > 100 | 3.31 | > 100 | 6.13 | > 100 | 1.04 | > 43.2 | 6.83 | > 100 | 1.38 | 5.04 |
| N=C(CC(=O)Nc1ccccn1)c1ccccc1 |  | > 100 |  | > 100 |  | > 100 |  | > 100 |  | > 100 |  | > 100 |  | > 100 |  | > 100 |  | > 100 |  | > 100 |
| O=C1NC(=NCCc2ccc(Br)cc2)S/C1=C\c1ccc2ncccc2c1 | > 25 | > 25 | > 20.6 | > 25 | 10.5 | > 25 | > 25 | > 25 | > 25 | > 25 | > 25 | > 25 | > 25 | > 25 | 16.7 | > 25 | 15.9 | > 25 | > 25 | > 25 |
| CCS(=O)(=O)c1ccc(OC)c(Nc2ncc(-c3cccc(F)c3)o2)c1 | > 25 | > 25 | > 25 | > 25 | > 25 | > 25 | > 25 | > 25 | > 25 | > 25 | > 25 | > 25 | > 25 | > 25 | > 25 | > 25 | > 25 | > 25 | > 25 | > 25 |
| CN(CCCCCl)P(=O)(OCc1ccc([N+](=O)[O-])o1)OCC1OC(n2cc([N+](=O)[O-])c(=O)[nH]c2=O)CC1O (stereo not given) | > 100 | > 100 | > 100 | > 100 | 9.75 | 84.8 | > 100 | > 100 | > 100 | > 100 | > 100 | > 100 | 47.3 | > 100 | 66.5 | > 100 | 3 | > 100 | > 100 | > 100 |
| CCC(=O)Nc1nnc(Cc2ccc(OC)c(OC)c2)s1 | > 100 | > 100 | > 100 | > 100 | > 100 | > 100 | > 100 | > 100 | > 100 | > 100 | > 100 | > 100 | > 100 | > 100 | > 100 | > 100 | > 100 | > 100 | > 100 | > 100 |
| C=CCSC(C)=O |  | > 100 |  | > 100 |  | > 100 |  | > 100 |  | > 100 |  | > 100 |  | > 100 |  | > 100 |  | > 100 |  | > 100 |
| Cc1ccc(-c2nc3sc(C)cn3c2/C=C2\C(=O)Nc3ccc(Cl)cc32)cc1 | 32.3 | > 100 | 15.7 | 34.2 | 14.5 | 29.9 | 18.8 | 38.5 | 10.6 | 27.7 | 22.3 | 54.4 | 13.8 | 26.7 | 12.2 | 24.7 | 17.8 | 35.5 | 22.4 | 58.6 |
| COc1ccc2nc3ccccc3c(NCCNCC(C)O)c2c1 (stereo not given) | 0.492 | 4.26 | 5.11 | 39.4 | 0.463 | 4.45 | 0.377 | 5.01 | 0.391 | 10.3 | 0.537 | 4.82 | 0.202 | 0.483 | 0.241 | 1.41 | 0.583 | 11.1 | 0.398 | 2.66 |
| Cc1cc(N2CCOCC2)nc(NCc2cc(Nc3ccnc4cc(Cl)ccc34)ccc2F)n1 | 2.31 | 4.82 | 1.73 | 3.31 | 1.32 | 3.69 | 1.62 | 3.16 | 1.65 | 3.45 | 1.8 | 3.48 | 1.75 | 3.27 | 1.51 | 3.08 | 1.42 | 3.02 | 2.32 | 5.96 |
| COc1cc(C(=O)n2nc(N)c3c(C)cc(C)nc32)cc(OC)c1OC | 4.49 | > 100 | 16.3 | > 100 | > 100 | > 100 | > 100 | > 100 | > 100 | > 100 | > 100 | > 100 | > 100 | > 100 | 42 | > 100 | > 100 | > 100 | > 82.1 | > 100 |
